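Growth conditions: 96-well plates. Treatment: test compound, 48 hours, 5 concentrations. Analysis: linear interpolation between bracketing concentrations; unreached endpoints set to highest concentration. The concentration for full growth arrest is given as TGI.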
Assays:
Experiment in all cases: DTP human tumour cell line panel, 48 h
HCC-2998 colon = test system: HCC-2998 colon
OVCAR-4 ovarian = test system: OVCAR-4 ovarian
SR leukemia = test system: SR leukemia
SK-MEL-5 melanoma = test system: SK-MEL-5 melanoma
UACC-62 melanoma = test system: UACC-62 melanoma
SF-295 CNS = test system: SF-295 CNS
TK-10 renal = test system: TK-10 renal
DU-145 prostate = test system: DU-145 prostate
UO-31 renal = test system: UO-31 renal
HOP-92 NSCLC = test system: HOP-92 NSCLC
HCT-116 colon = test system: HCT-116 colon
SF-268 CNS = test system: SF-268 CNS
SNB-75 CNS = test system: SNB-75 CNS
COLO 205 colon = test system: COLO 205 colon
NCI-H522 lung = test system: NCI-H522 lung
IGROV1 ovarian = test system: IGROV1 ovarian
OVCAR-8 ovarian = test system: OVCAR-8 ovarian
MDA-MB-435 = test system: MDA-MB-435
UACC-257 melanoma = test system: UACC-257 melanoma
K-562 leukemia = test system: K-562 leukemia
RXF 393 renal = test system: RXF 393 renal
SNB-19 CNS = test system: SNB-19 CNS
A549 NSCLC = test system: A549 NSCLC
NCI-H226 lung = test system: NCI-H226 lung
M14 melanoma = test system: M14 melanoma
SK-OV-3 ovarian = test system: SK-OV-3 ovarian
SF-539 CNS = test system: SF-539 CNS
HL-60(TB) leukemia = test system: HL-60(TB) leukemia
LOX IMVI melanoma = test system: LOX IMVI melanoma
OVCAR-3 ovarian = test system: OVCAR-3 ovarian
MOLT-4 leukemia = test system: MOLT-4 leukemia
MCF7 breast = test system: MCF7 breast
786-0 renal = test system: 786-0 renal
SK-MEL-28 melanoma = test system: SK-MEL-28 melanoma
A498 renal = test system: A498 renal
NCI-H460 lung = test system: NCI-H460 lung
CCRF-CEM leukemia = test system: CCRF-CEM leukemia
SK-MEL-2 melanoma = test system: SK-MEL-2 melanoma
MDA-MB-231 breast = test system: MDA-MB-231 breast
NCI/ADR-RES ovarian = test system: NCI/ADR-RES ovarian
SN12C renal = test system: SN12C renal
U251 CNS = test system: U251 CNS
MALME-3M melanoma = test system: MALME-3M melanoma
SW-620 colon = test system: SW-620 colon
HCT-15 colon = test system: HCT-15 colon
MDA-N = test system: MDA-N
HOP-62 NSCLC = test system: HOP-62 NSCLC
T-47D breast = test system: T-47D breast
PC-3 prostate = test system: PC-3 prostate
NCI-H23 lung = test system: NCI-H23 lung
ACHN renal = test system: ACHN renal
HT29 colon = test system: HT29 colon
KM12 colon = test system: KM12 colon
HS 578T breast = test system: HS 578T breast
CAKI-1 renal = test system: CAKI-1 renal
BT-549 breast = test system: BT-549 breast
OVCAR-5 ovarian = test system: OVCAR-5 ovarian
RPMI-8226 leukemia = test system: RPMI-8226 leukemia
EKVX NSCLC = test system: EKVX NSCLC

CC(=O)OCC1OC(n2c(C)c(C(C)=O)c(-c3ccc(Cl)cc3)c(C#N)c2=S)C(OC(C)=O)C(OC(C)=O)C1OC(C)=O (stereo unspecified) gave a TGI (HCC-2998 colon) of over 100 µM, a TGI (OVCAR-4 ovarian) of over 100 µM and a TGI (SR leukemia) of over 100 µM. The TGI (SK-MEL-5 melanoma) was over 100 µM, the TGI (UACC-62 melanoma) was over 100 µM and the TGI (SF-295 CNS) was over 100 µM. The TGI (TK-10 renal) was over 100 µM, the TGI (DU-145 prostate) was over 100 µM and the TGI (UO-31 renal) was over 100 µM. For the same compound, the TGI (HOP-92 NSCLC) was over 100 µM, the TGI (HCT-116 colon) was over 100 µM and the TGI (SF-268 CNS) was over 100 µM. The TGI (SNB-75 CNS) was over 100 µM, the TGI (COLO 205 colon) was over 100 µM and the TGI (NCI-H522 lung) was over 100 µM. The TGI (IGROV1 ovarian) was over 100 µM, the TGI (OVCAR-8 ovarian) was over 100 µM and the TGI (MDA-MB-435) was over 100 µM. It also gave a TGI (UACC-257 melanoma) of over 100 µM, a TGI (K-562 leukemia) of over 100 µM and a TGI (RXF 393 renal) of over 100 µM. The TGI (SNB-19 CNS) was over 100 µM, the TGI (A549 NSCLC) was over 100 µM and the TGI (NCI-H226 lung) was over 100 µM. For the same compound, the TGI (M14 melanoma) was over 100 µM, the TGI (SK-OV-3 ovarian) was over 100 µM and the TGI (SF-539 CNS) was over 100 µM. It also gave a TGI (HL-60(TB) leukemia) of over 100 µM, a TGI (LOX IMVI melanoma) of over 100 µM and a TGI (OVCAR-3 ovarian) of over 100 µM. The TGI (MOLT-4 leukemia) was over 100 µM, the TGI (MCF7 breast) was over 100 µM and the TGI (786-0 renal) was over 100 µM. The TGI (SK-MEL-28 melanoma) was over 100 µM, the TGI (A498 renal) was over 100 µM and the TGI (NCI-H460 lung) was over 100 µM. For the same compound, the TGI (CCRF-CEM leukemia) was over 100 µM, the TGI (SK-MEL-2 melanoma) was over 100 µM and the TGI (MDA-MB-231 breast) was over 100 µM. For the same compound, the TGI (NCI/ADR-RES ovarian) was over 100 µM, the TGI (SN12C renal) was over 100 µM and the TGI (U251 CNS) was over 100 µM. For the same compound, the TGI (MALME-3M melanoma) was over 100 µM, the TGI (SW-620 colon) was over 100 µM and the TGI (HCT-15 colon) was over 100 µM. For the same compound, the TGI (MDA-N) was over 100 µM, the TGI (HOP-62 NSCLC) was over 100 µM and the TGI (T-47D breast) was over 100 µM. It also gave a TGI (PC-3 prostate) of over 100 µM, a TGI (NCI-H23 lung) of over 100 µM and a TGI (ACHN renal) of over 100 µM. The TGI (HT29 colon) was over 100 µM and the TGI (KM12 colon) was over 100 µM.

Work on Cc1ccc(SC2=C(N(C)C)C(=O)c3ccccc3C2=O)cc1 yielded a TGI (HCC-2998 colon) of 32.4 µM, a TGI (OVCAR-4 ovarian) of 24.8 µM and a TGI (SR leukemia) of 3.84 µM. For the same compound, the TGI (SK-MEL-5 melanoma) was 8.6 µM, the TGI (UACC-62 melanoma) was 17.8 µM and the TGI (HS 578T breast) was over 27.6 µM. The TGI (SF-295 CNS) was 25.6 µM, the TGI (CAKI-1 renal) was 9.73 µM and the TGI (TK-10 renal) was 21.6 µM. It also gave a TGI (DU-145 prostate) of 23 µM, a TGI (UO-31 renal) of 21.9 µM and a TGI (HOP-92 NSCLC) of 18.3 µM. For the same compound, the TGI (HCT-116 colon) was 7.26 µM, the TGI (SF-268 CNS) was 18.4 µM and the TGI (SNB-75 CNS) was 43.5 µM. It also gave a TGI (COLO 205 colon) of 51.5 µM, a TGI (BT-549 breast) of 26.6 µM and a TGI (NCI-H522 lung) of 10.5 µM. It also gave a TGI (IGROV1 ovarian) of 17.6 µM, a TGI (OVCAR-8 ovarian) of 6.44 µM and a TGI (MDA-MB-435) of 1.22 µM. It also gave a TGI (UACC-257 melanoma) of 15.6 µM, a TGI (K-562 leukemia) of 7.68 µM and a TGI (RXF 393 renal) of 20.8 µM. For the same compound, the TGI (SNB-19 CNS) was 29.6 µM, the TGI (A549 NSCLC) was 30.2 µM and the TGI (NCI-H226 lung) was 25.8 µM. It also gave a TGI (M14 melanoma) of 16.4 µM, a TGI (SK-OV-3 ovarian) of 41.9 µM and a TGI (SF-539 CNS) of 9.71 µM. It also gave a TGI (HL-60(TB) leukemia) of 16.9 µM, a TGI (LOX IMVI melanoma) of 24.6 µM and a TGI (OVCAR-3 ovarian) of 2.96 µM. For the same compound, the TGI (MOLT-4 leukemia) was 12.4 µM, the TGI (OVCAR-5 ovarian) was 40.3 µM and the TGI (MCF7 breast) was 17.5 µM. For the same compound, the TGI (786-0 renal) was over 32.2 µM, the TGI (SK-MEL-28 melanoma) was 25.8 µM and the TGI (A498 renal) was 50.3 µM. The TGI (NCI-H460 lung) was 18.5 µM, the TGI (CCRF-CEM leukemia) was 17.5 µM and the TGI (SK-MEL-2 melanoma) was 23.5 µM. It also gave a TGI (RPMI-8226 leukemia) of 11.7 µM, a TGI (MDA-MB-231 breast) of 20.1 µM and a TGI (NCI/ADR-RES ovarian) of 6.35 µM. For the same compound, the TGI (SN12C renal) was 16.6 µM, the TGI (U251 CNS) was 23.7 µM and the TGI (MALME-3M melanoma) was 18.4 µM. For the same compound, the TGI (SW-620 colon) was 16.1 µM, the TGI (HCT-15 colon) was over 39.9 µM and the TGI (HOP-62 NSCLC) was 23.6 µM. For the same compound, the TGI (EKVX NSCLC) was 20.1 µM, the TGI (T-47D breast) was over 38 µM and the TGI (PC-3 prostate) was 18.7 µM. The TGI (NCI-H23 lung) was 10.4 µM, the TGI (ACHN renal) was 21.4 µM and the TGI (HT29 colon) was 31 µM. For the same compound, the TGI (KM12 colon) was 16.4 µM.

— PubChem BioAssay (NCI)
